Patent US12465604B2 (priority 2015, dated 2025)
Marks after values point to notes of the source that are not given here.

Columns and labels:
[1] = test system: HIV-based vector integration sites in SupT1 cells; experiment: Integration site distribution of HIV-based vector near mapped genomic features; format: cell-based
[2] = test system: HIV-based vector integration sites in SupT1 cells; experiment: Integration frequency near safe harbor criteria; format: cell-based
[3] = test system: single-round HIV-based lentiviral vector in SupT1 cells; experiment: Transduction efficiency of single-round HIV-based lentiviral vector (eGFP flow cytometry); format: cell-based; conditions: dilution series, data not shown
Description: In a next step we employed the recently developed LEDGINs, small molecules that inhibit LEDGF/p75-IN interaction and inhibit integration of HIV provirus (Christ et al., 2010, above) to investigate the impact of LEDGIN treatment on the HIV reservoir in cell culture. SupT1 cells were transduced with a single-round HIV-based lentiviral vector expressing the enhanced Green Fluorescent Protein (eGFP) reporter protein and treated with a dilution series of LEDGIN CX014442 (Christ et al 2012, above). […] In a first step, we determined integration site distribution of HIV-based viral vector integration sites (Gijsbers et al., 2009; Marshall et al., 2007). The number of integration sites is indicated for each data set (Table 2). First, we analysed lentiviral integration relative to a set of genomic features.

[4] = test system: HIV OGH double reporter virus in SupT1 cells; format: cell-based, HIV-1; conditions: SupT1, 3 days post infection, increasing concentrations
[5] = test system: HIV NL4-3.tCD34.R-.E- in SupT1 cells; experiment: microbe, parasite or virus in culture; format: cell-based; conditions: Human immunodeficiency virus 1, NL43, SUP-T1, read-out: inhibition of reactivation from latency
[6] = test system: HIV-OGH double reporter virus in SupT1 cells; experiment: Reactivation with TNFα, SupT1 cells infected with HIV-OGH double reporter virus; format: cell-based, HIV-1; conditions: SupT1, 50 μM
Procedure: To corroborate these findings SupT1 cells were infected with the HIV-OGH double reporter virus under different LEDGIN (CX014442) concentrations. SupT1 cells were infected and reactivated under conditions similar to the experiment with HIV tCD34 (FIGS. 2 and 5). Data are represented in FIG. 6. Two different virus dilutions are depicted in panel A and B. In both graphs the percentage eGFP+, mKO2+ cells and overall % mKO2 positive cells is plotted after stimulation with DMSO or TNFα for 24 h. The dashed lines show an increase in percentage of eGFP+, mKO2+ cells after stimulation with TNFα compared to DMSO, while the overall percentage of mKO2 positive cells remains constant. LEDGIN treatment reduces the reactivation of eGFP+, mKO2+ cells in a concentration-dependent manner, with 50 μM of CX014442 reducing reactivation to only 1.5-2 fold (FIG. 6C).
11 days post infection the infected cells were reactivated from latency using TNFalpha (10 ng/mL, Immunosource), SAHA (0.3 to 3 μM, AIDS reagents), prostratin (5 μM, AIDS reagents) or PMA (0.3 μM, AIDS reagents) 24 hours prior to analysis by flow cytometry. Time courses and drug concentrations are indicated in the individual experiments. LEDGINs were synthesized by the Cistim/CD3-facility (courtesy of Dr. A. Marchand).

HIV-1 = experiment: 'late' IC50 stated in legend of FIG. 8; format: cell-based; conditions: Human immunodeficiency virus 1
[7] = test system: OGH reporter virus in activated primary CD4+ T-cells; conditions: 3 days post infection, trend
Description: Peripheral Blood Mononuclear cells (PBMCs) were purified and CD4+ T-cells selectively enriched using Bi-specific MAb CD3.8 (AIDS reagents) for 5 days and infected with the OGH reporter virus. HIV infection was monitored 3 days post infection using flow cytometry analysis (FIG. 4).
Human PBMCs were purified, selectively enriched for CD4+ T cells using Bi-specific MAb CD3.8 and infected with the OGH reporter virus, in the presence or absence of LEDGINs (FIG. 7a,b).
Human peripheral blood mononuclear cells (PBMCs), obtained from the Red Cross Blood transfusion Center (Mechelen, Belgium) according to approved bioethical guidelines of our institute (S57175-IRB00002047), were purified from fresh buffy coats using lymphoprep density gradient centrifugation (Stem cell technologies). The CD4+ T cells were selectively enriched using Bi-specific MAb CD3.8 (0.5 μg/mL, AIDS reagents) for 5 days. Cells were cultured in RPMI 1640, 15% v/v FBS, 0.1% v/v Gentamicin, 100 U/ml IL-2 (Peprotech) (T-cell medium, TCM). Enriched total CD4+ primary T cells were infected with single round reporter virus for 2 h at 37° C., washed twice in TCM and reseeded in medium containing different concentrations of LEDGIN CX014442. HIV infection was monitored 48 h post infection using flow cytometry analysis.

[8] = test system: NL4.3 virus in primary CD4+ T cells
Description: Next we evaluated the multimodal effect of LEDGIN treatment on integration, assembly and reactivation in a multiple round reactivation model using WT HIV in resting CD4+ T-cells in order to model the in vivo situation. PHA/IL-2 activated primary (resting) CD4+ T cells were infected with NL4.3 virus in the presence of submicromolar concentrations of LEDGINs. At day four post infection (p.i.) LEDGINs were removed and cells were reseeded in the presence of PMA and PHA. Virus production upon reactivation was measured at day 7 p.i. by p24 ELISA.
Resting CD4+ T cells were purified using a custom-made EasySep negative selection kit (Stem Cell Technologies; 19052 cocktail, with the addition of CD25, CD69, and HLA-DR antibodies (catalogue number 19309VK)). […] Four days post-infection cells were washed twice using PBS and some cells were harvested for quantification of integrated proviral DNA using real time PCR (nested Alu-LTR PCR, (Butler et al., 2001; Lewin et al., 2008) normalized for input DNA by qPCR for the CCR5 gene as previously described (Zhang et al., 1999). Other cells were reseeded in the presence of 10 nM PMA (Sigma-Aldrich) together with 10 μg/mL PHA (Sigma-Aldrich) or left untreated. PHA activated feeder peripheral blood mononuclear cells (PBMCs) were added 24 h after the activating stimulus to amplify virus replication and enhance detection of the infection (Saleh et al., 2011). […]

[9] = test system: NL4-3.tCD34.R-.E-/VSV-G latent provirus in Nalm wt (+/c) cells; format: cell-based, HIV
[10] = test system: NL4-3.tCD34.R-.E-/VSV-G latent provirus in Nalm LEDGF/p75 KO (−/−) cells; format: cell-based, HIV
[11] = compound concentration 0.78125 μM
[12] = compound concentration 1.5625 μM
[13] = compound concentration 3.125 μM

CCCC(C(=O)O)c1c(C)nc2ccc(Cl)cc2c1-c1ccccc1 (centres unmarked) [CX014442, 2-(6-chloro-2-methyl-4-phenylquinolin-3-yl)pentanoic acid]
% CpG within 2 kb ([1]; compound concentration 0.54 μM): 2.33%
% CpG within 4 kb ([1]; compound concentration 0.54 μM): 5.83%
% DHS within 2 kb ([1]; compound concentration 0.54 μM): 24.07%
% DHS within 4 kb ([1]; compound concentration 0.54 μM): 39.94%
% TSS within 2 kb ([1]; compound concentration 0.54 μM): 2.00%
% TSS within 4 kb ([1]; compound concentration 0.54 μM): 5.92%
in RefGene ([1]; compound concentration 0.54 μM): 70.58%
% CpG within 2 kb ([1]; compound concentration 1.5 μM): 2.37%
% CpG within 4 kb ([1]; compound concentration 1.5 μM): 5.79%
% DHS within 2 kb ([1]; compound concentration 1.5 μM): 20.94%
% DHS within 4 kb ([1]; compound concentration 1.5 μM): 37.18%
% TSS within 2 kb ([1]; compound concentration 1.5 μM): 2.41%
% TSS within 4 kb ([1]; compound concentration 1.5 μM): 5.88%
in RefGene ([1]; compound concentration 1.5 μM): 70.37%
% CpG within 2 kb ([1]; compound concentration 3 μM): 1.73%
% CpG within 4 kb ([1]; compound concentration 3 μM): 5.39%
% DHS within 2 kb ([1]; compound concentration 3 μM): 21.49%
% DHS within 4 kb ([1]; compound concentration 3 μM): 37.55%
% TSS within 2 kb ([1]; compound concentration 3 μM): 1.97%
% TSS within 4 kb ([1]; compound concentration 3 μM): 5.59%
in RefGene ([1]; compound concentration 3 μM): 66.60%
% CpG within 2 kb ([1]; compound concentration 6 μM): 2.97%
% CpG within 4 kb ([1]; compound concentration 6 μM): 6.39%
% DHS within 2 kb ([1]; compound concentration 6 μM): 21.78%
% DHS within 4 kb ([1]; compound concentration 6 μM): 37.12%
% TSS within 2 kb ([1]; compound concentration 6 μM): 3.03%
% TSS within 4 kb ([1]; compound concentration 6 μM): 6.45%
in RefGene ([1]; compound concentration 6 μM): 65.23** %
% CpG within 2 kb ([1]; compound concentration 12 μM): 3.39%
% CpG within 4 kb ([1]; compound concentration 12 μM): 7.35%
% DHS within 2 kb ([1]; compound concentration 12 μM): 23.6%
% DHS within 4 kb ([1]; compound concentration 12 μM): 38.57%
% TSS within 2 kb ([1]; compound concentration 12 μM): 3.96** %
% TSS within 4 kb ([1]; compound concentration 12 μM): 7.58%
in RefGene ([1]; compound concentration 12 μM): 61.88*** %
% CpG within 2 kb ([1]; compound concentration 25 μM): 4.97** %
% CpG within 4 kb ([1]; compound concentration 25 μM): 10.26** %
% DHS within 2 kb ([1]; compound concentration 25 μM): 22.19%
% DHS within 4 kb ([1]; compound concentration 25 μM): 40.07%
% TSS within 2 kb ([1]; compound concentration 25 μM): 4.30** %
% TSS within 4 kb ([1]; compound concentration 25 μM): 8.94%
in RefGene ([1]; compound concentration 25 μM): 60.93*** %
% CpG within 2 kb ([1]; compound concentration 50 μM): 5.50%
% CpG within 4 kb ([1]; compound concentration 50 μM): 11.72*** %
% DHS within 2 kb ([1]; compound concentration 50 μM): 26.08%
% DHS within 4 kb ([1]; compound concentration 50 μM): 40.67%
% TSS within 2 kb ([1]; compound concentration 50 μM): 6.94%
% TSS within 4 kb ([1]; compound concentration 50 μM): 12.68*** %
in RefGene ([1]; compound concentration 50 μM): 54.55%
epigenetic preference of integration for transcriptionally active regions ([1]; histone marks, data not shown): inverted in a dose dependent manner
concentration at which a significant difference compared to wt in global integration preferences was reached ([1]; shift out of transcriptionally active regions): above 12 μM
% in UCR [2, 11]: 6.36%
% in transcript. Units [2, 11]: 74.95%
% within 50 kb of TSS [2, 11]: 31.13%
% within 300 kb of miRNAs [2, 11]: 25.54%
% within 300 kb of onco [2, 11]: 38.15%
Total % safe [2, 11]: 11.14%
% in UCR [2, 12]: 7.24%
% in transcript. Units [2, 12]: 75.11%
% within 50 kb of TSS [2, 12]: 29.28%
% within 300 kb of miRNAs [2, 12]: 22.52%
% within 300 kb of onco [2, 12]: 35.47%
Total % safe [2, 12]: 10.36%
% in UCR [2, 13]: 7.77%
% in transcript. Units [2, 13]: 71.91%
% within 50 kb of TSS [2, 13]: 28.57%
% within 300 kb of miRNAs [2, 13]: 23.34%
% within 300 kb of onco [2, 13]: 35.45%
Total % safe [2, 13]: 11.31%
% in UCR ([2]; compound concentration 6.25 μM): 6.03%
% in transcript. Units ([2]; compound concentration 6.25 μM): 70.48%
% within 50 kb of TSS ([2]; compound concentration 6.25 μM): 29.46%
% within 300 kb of miRNAs ([2]; compound concentration 6.25 μM): 21.76%
% within 300 kb of onco ([2]; compound concentration 6.25 μM): 33.03%
Total % safe ([2]; compound concentration 6.25 μM): 13.32%
% in UCR ([2]; compound concentration 12.5 μM): 9.39%
% in transcript. Units ([2]; compound concentration 12.5 μM): 67.42%
% within 50 kb of TSS ([2]; compound concentration 12.5 μM): 31.33%
% within 300 kb of miRNAs ([2]; compound concentration 12.5 μM): 24.89%
% within 300 kb of onco ([2]; compound concentration 12.5 μM): 33.03%
Total % safe ([2]; compound concentration 12.5 μM): 13.24%
% in UCR ([2]; compound concentration 25 μM): 6.95%
% in transcript. Units ([2]; compound concentration 25 μM): 66.06%
% within 50 kb of TSS ([2]; compound concentration 25 μM): 29.80%
% within 300 kb of miRNAs ([2]; compound concentration 25 μM): 21.52%
% within 300 kb of onco ([2]; compound concentration 25 μM): 35.26%
Total % safe ([2]; compound concentration 25 μM): 14.57%
% in UCR ([2]; compound concentration 50 μM): 5.98%
% in transcript. Units ([2]; compound concentration 50 μM): 59.57%
% within 50 kb of TSS ([2]; compound concentration 50 μM): 32.54%
% within 300 kb of miRNAs ([2]; compound concentration 50 μM): 22.25%
% within 300 kb of onco ([2]; compound concentration 50 μM): 35.65%
Total % safe ([2]; compound concentration 50 μM): 16.51%
% eGFP positive cells (transduction efficiency) [3]: dose-dependent decrease
% eGFP+, mKO2+ cells [4]: dose dependent decrease
overall % mKO2 positive cells [4]: dose dependent decrease
EC50 [5]: 7.24 µM
reactivation of eGFP+, mKO2+ cells after TNFα relative to DMSO [6]: 1.5-2 fold
IC50 (HIV-1): 0.06 µM
% latently infected cells [7]: increased
number of proviral DNA copies ([8]; 4 days p.i., submicromolar concentrations): reduced
p24 production upon reactivation with PMA and PHA ([8]; day 7 p.i., average of two donors): reduced

O=C(CCCCCCC(=O)Nc1ccccc1)NO [SAHA, Suberoylanilide Hydroxamic acid]
reactivation of tCD34 expression [9]: 3- to 4 fold
reactivation of tCD34 expression [10]: 2 fold
